# Reference: ChEMBL document CHEMBL3244006, “Synthesis and antinociceptive activity of 7-methoxycodeine” (J Med Chem, 1978)
# Activity calls are given as the source filed them. The rule behind the calls is not given here.
# What was measured:
# Mus musculus [1] = experiment: Antinociceptive activity in mouse at 100 mg/kg, sc by Eddy hot-plate assay; format: functional, organism-based; design: dose 100 mg/kg
# Mus musculus [2] = experiment: Antinociceptive activity in po dosed mouse by Eddy hot-plate assay; format: functional
# Mus musculus [3] = experiment: Antinociceptive activity in sc dosed mouse by Eddy hot-plate assay; format: functional
# [4] = Stability of the compound in acidic media; format: physicochemical
# Mus musculus [5] = experiment: Antinociceptive activity in mouse at 100 mg/kg, po by Eddy hot-plate assay; format: functional, organism-based; design: dose 100 mg/kg
SMILES,ED50 (Mus musculus [2]),ED50 (Mus musculus [3]),further results
COC1=C[C@H]2[C@H]3Cc4c(Br)cc(OC)c(O)c4[C@@]2(CCN3C)CC1=O,,,Activity (Mus musculus [1]): inactive
COc1ccc2c3c1O[C@H]1[C@@H](O)C=C[C@H]4[C@@H](C2)N(C)CC[C@@]341 [CODEINE PHOSPHATE],34 µmol/kg,,
CN1CC[C@]23c4c5ccc(O)c4O[C@H]2[C@@H](O)C=C[C@H]3[C@H]1C5,18.8 µmol/kg,3.3 µmol/kg,
COC1=C[C@H]2[C@H]3Cc4c(Br)cc(OC)c5c4[C@@]2(CCN3C)[C@@H](O5)C1=O,,40.4 µmol/kg,
COC1=C[C@]23CCN(C)[C@H](Cc4c(Br)cc(OC)c(O)c42)[C@@H]3CC1=O,,,Activity (Mus musculus [1]): inactive
COC1=C[C@H]2[C@H]3Cc4ccc(OC)c5c4[C@@]2(CCN3C)[C@@H](O5)[C@H]1O,30.4 µmol/kg,43.1 µmol/kg,Stability [4]: Unstable
COc1ccc2c(c1O)[C@]13CCN(C)[C@H](C2)[C@@H]1CC(=O)C(=O)C3,,26.7 µmol/kg,Activity (Mus musculus [5]): inactive
